Data published in patent US8709482B2, “Stabilised prostaglandin composition” (Ferring B.V., priority 2005, dated 2014).

Legend:
[1] = Stability study of misoprostol oil at 25° C. (HPLC content, physical form); format: physicochemical
Description: Misoprostol stability was tested over a period of 6 months. The misoprostol tested was the commercially available misoprostol in the form of an oil. Misoprostol was stored at a temperature of 25° C., and misoprostol content measured using HPLC at 0, 2, 4, 8 weeks and 3 and 6 months.

[2] = Comparative stability at 25° C. of dinoprostone bulk drug crystal and dinoprostone in polyurethane hydrogel; format: physicochemical
Excerpt: Measurements are taken at 0, 1, 2, 3, and 6 months. The following results are for comparative purposes only and are not intended to form part of the present invention.

Misoprostol content [1]; 0 | Physical form [1]; 0 | Misoprostol content ([1]; 2 w) | Physical form ([1]; 2 w) | Misoprostol content ([1]; 3 m) | Physical form ([1]; 3 m) | Misoprostol content ([1]; 4 w) | Physical form ([1]; 4 w) | Misoprostol content ([1]; 6 m) | Physical form ([1]; 6 m) | Misoprostol content ([1]; 8 w) | Physical form ([1]; 8 w) | Stability (FIG. 1) ([1]; in the absence of polyurethane hydrogel) | % potency ([2]; 0 months) | % potency ([2]; 1 month) | % potency ([2]; 3 months) | % potency ([2]; 6 months) | SMILES
101.59 % w/w | Colourless | 99.61 % w/w | Colourless | 93.63 % w/w | Straw | 98.59 % w/w | Colourless | 57.07 % w/w | Yellow | 96.87 % w/w | Clear | degrades with time | – | – | – | – | CCCCC(C)(O)C/C=C/[C@H]1[C@H](O)CC(=O)[C@@H]1CCCCCCC(=O)OC (mixture of isomers) [Misoprostol, (11α,13E)-(±)-11,16-Dihydroxy-16-methyl-9-oxoprost-13-en-1-oic acid methyl ester]
– | – | – | – | – | – | – | – | – | – | – | – | – | 100 % potency | 96 % potency | 89 % potency | 75 % potency | CCCCC[C@H](O)/C=C/[C@H]1[C@H](O)CC(=O)[C@@H]1C/C=C\CCCC(=O)O [Dinoprostone]
